# Columns and labels:
# [1] = Microsomal stability in vitro (human liver microsomes)
# [2] = molecular target: T1, truncated ERCC1 (dERCC1) and XPF (dXPF) dimer (Homo sapiens, UniProt Q92889); experiment: Micro Scale Thermophoresis of truncated ERCC1-XPF; assay type: binding; settings: truncated dimer compared to individual peptides
# T1 construct: XPF (dXPF, codons 667-916); made in house
# T1 sequence (Q92889 667-916): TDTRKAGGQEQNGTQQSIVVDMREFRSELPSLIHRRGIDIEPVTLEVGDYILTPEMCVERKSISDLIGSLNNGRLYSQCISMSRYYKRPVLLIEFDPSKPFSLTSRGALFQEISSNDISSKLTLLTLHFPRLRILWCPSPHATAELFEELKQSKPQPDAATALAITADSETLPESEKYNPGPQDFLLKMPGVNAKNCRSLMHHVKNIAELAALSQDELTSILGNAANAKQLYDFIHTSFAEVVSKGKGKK
# From the text: MST allows for the detection of interactions and changes in the molecular properties of biomolecules at low nanomolar concentrations. We synthesized two human recombinant truncated forms of ERCC1 (dERCC1, codons 96-297) and XPF (dXPF, codons 667-916) for this study because these peptides contain the subunit interaction domains that the inhibitor was designed to disrupt.
# [3] = tested on: five CYP450 tested enzymes; experiment: ADME screening: CYP inhibition (five CYP450 enzymes); settings: Table 8
# [4] = tested on: five CYP450 enzymes (CYP1A2, CYP2C9, CYP2C19, CYP2D6, CYP3A4-M); experiment: as above; settings: human
# ERCC1-XPF complex = molecular target: T2, ERCC1-XPF complex (Homo sapiens, UniProt Q92889); experiment: Steady-state intrinsic tryptophan fluorescence quenching binding assay; settings: 2 μM compound; excitation 295 nm
# T2 construct: His6; made in house; host or cells: E. coli BL21 (DE3)
# T2 sequence (Q92889 1-916): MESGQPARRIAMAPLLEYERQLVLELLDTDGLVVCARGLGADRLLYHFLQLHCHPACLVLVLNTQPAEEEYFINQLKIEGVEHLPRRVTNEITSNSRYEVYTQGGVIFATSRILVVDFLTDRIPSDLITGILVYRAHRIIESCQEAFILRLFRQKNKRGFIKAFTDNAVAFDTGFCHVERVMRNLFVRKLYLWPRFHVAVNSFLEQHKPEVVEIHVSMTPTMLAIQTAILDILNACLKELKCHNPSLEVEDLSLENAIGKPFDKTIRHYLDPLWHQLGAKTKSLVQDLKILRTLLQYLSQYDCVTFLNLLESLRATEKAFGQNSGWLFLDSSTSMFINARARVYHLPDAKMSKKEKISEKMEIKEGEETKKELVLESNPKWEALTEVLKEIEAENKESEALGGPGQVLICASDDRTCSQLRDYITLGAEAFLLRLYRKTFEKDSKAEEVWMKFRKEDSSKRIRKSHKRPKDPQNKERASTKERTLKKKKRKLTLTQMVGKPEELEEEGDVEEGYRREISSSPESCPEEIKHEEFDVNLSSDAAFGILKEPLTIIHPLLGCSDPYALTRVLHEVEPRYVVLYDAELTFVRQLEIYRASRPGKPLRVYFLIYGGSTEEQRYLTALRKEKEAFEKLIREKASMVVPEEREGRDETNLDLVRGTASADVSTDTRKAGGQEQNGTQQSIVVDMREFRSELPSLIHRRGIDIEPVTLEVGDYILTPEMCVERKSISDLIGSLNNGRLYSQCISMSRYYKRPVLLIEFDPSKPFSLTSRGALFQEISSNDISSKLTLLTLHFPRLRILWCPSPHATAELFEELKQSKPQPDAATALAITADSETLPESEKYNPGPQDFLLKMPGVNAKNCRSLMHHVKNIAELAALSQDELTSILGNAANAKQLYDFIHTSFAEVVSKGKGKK
# Method: Steady-state fluorescence spectra were measured at room temperature on a Perkin-Elmer LS-55 spectrofluorometer (Freemont, Calif.) with 5 nm spectral resolution for excitation and emission using 30-80 nM solution of purified recombinant ERCC1-XPF protein complex. […] In studying the effects of inhibitors on protein fluorescence intensities, additions to protein samples were made from inhibitors stock solutions, keeping the protein dilution below 3%.
# CYP1A2 = molecular target: T3, CYP1A2 (Homo sapiens, UniProt P05177); experiment: CYP450 inhibition, CYP1A2
# T3 sequence (P05177 1-516): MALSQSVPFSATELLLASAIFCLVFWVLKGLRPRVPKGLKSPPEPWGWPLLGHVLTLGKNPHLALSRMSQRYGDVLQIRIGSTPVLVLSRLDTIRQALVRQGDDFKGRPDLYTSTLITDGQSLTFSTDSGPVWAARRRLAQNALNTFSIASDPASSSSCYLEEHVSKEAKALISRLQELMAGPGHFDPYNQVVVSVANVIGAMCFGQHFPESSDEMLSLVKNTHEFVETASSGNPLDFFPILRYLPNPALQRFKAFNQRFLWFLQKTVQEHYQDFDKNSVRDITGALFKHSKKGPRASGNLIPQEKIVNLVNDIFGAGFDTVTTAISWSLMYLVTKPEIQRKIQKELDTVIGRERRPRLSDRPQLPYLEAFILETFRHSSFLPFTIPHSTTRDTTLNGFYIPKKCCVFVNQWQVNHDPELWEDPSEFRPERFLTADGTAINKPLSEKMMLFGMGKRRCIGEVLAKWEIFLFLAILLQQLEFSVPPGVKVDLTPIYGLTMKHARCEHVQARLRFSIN
# CYP3A4-M = CYP3A4-M (Homo sapiens, UniProt P08684); experiment: CYP450 inhibition, CYP3A4-M
# [5] = ADME screening: solubility; assay type: physicochemical; settings: Table 8
# Chain of CYP3A4-M (P08684 whole entry): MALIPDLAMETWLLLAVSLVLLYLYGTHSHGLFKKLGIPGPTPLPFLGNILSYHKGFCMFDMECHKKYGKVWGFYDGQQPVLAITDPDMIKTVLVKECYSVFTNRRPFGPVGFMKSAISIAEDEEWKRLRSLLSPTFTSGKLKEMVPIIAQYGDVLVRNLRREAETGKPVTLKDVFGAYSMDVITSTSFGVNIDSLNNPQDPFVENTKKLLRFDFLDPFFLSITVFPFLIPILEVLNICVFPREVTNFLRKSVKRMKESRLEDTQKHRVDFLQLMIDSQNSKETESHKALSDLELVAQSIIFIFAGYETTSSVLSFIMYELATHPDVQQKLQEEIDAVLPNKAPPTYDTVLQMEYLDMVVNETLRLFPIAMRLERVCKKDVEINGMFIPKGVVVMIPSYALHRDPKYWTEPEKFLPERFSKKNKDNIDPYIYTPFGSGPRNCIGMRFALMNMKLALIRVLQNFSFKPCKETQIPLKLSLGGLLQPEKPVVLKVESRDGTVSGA
smiles,measurement,setting,value
"COc1ccc2nc3cc(Cl)ccc3c(Nc3ccc(O)c(CN4CCN(CCN(C)C)CC4)c3)c2c1 [Compound A4, 4-((6-Chloro-2-methoxyacridin-9-yl)amino)-2-((4-(2-(dimethylamino)ethyl)piperazin-1-yl)methyl) phenol]",metabolism on exposure to human liver microsomes (in words),[1],metabolism in the midrange
same,Microsomal stability in vitro CLint (in words),[1]; Table 8,Low
same,change in thermophoresis properties (in words),[2],induced a larger change in the thermophoresis properties of the truncated dimer
same,CVP inhibition (5 enzyme) (rating),[3],Good
same,IC50,[4],≥ 1 µM
same,quenching of protein fluorescence at 330 nm,ERCC1-XPF complex,~23±2%
same,IC50,CYP1A2,6.4 µM
same,inhibition of CYP3A4-M (in words),CYP3A4-M,weak inhibitor
same,Solubility (in words),[5],Poor

# Source: patent publication US20220306603A1, “TARGETING DNA REPAIR IN TUMOR CELLS VIA INHIBITION OF ERCC1-XPF” (The Governors of the University of Alberta, priority 2019, published 2022)
